#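 Growth conditions: 96-well plates. Treatment: test compound, 48 hours, 5 concentrations. Analysis: linear interpolation between bracketing concentrations; unreached endpoints set to highest concentration. At the TGI there is no net growth.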
# Assays:
# Test in all cases: NCI-60 cell line screen, 48 h
# 786-0 renal = test system: 786-0 renal
# A498 renal = test system: A498 renal
# A549 NSCLC = test system: A549 NSCLC
# ACHN renal = test system: ACHN renal
# BT-549 breast = test system: BT-549 breast
# CAKI-1 renal = test system: CAKI-1 renal
# CCRF-CEM leukemia = test system: CCRF-CEM leukemia
# COLO 205 colon = test system: COLO 205 colon
# EKVX NSCLC = test system: EKVX NSCLC
# HCC-2998 colon = test system: HCC-2998 colon
# HCT-116 colon = test system: HCT-116 colon
# HCT-15 colon = test system: HCT-15 colon
# HL-60(TB) leukemia = test system: HL-60(TB) leukemia
# HOP-62 NSCLC = test system: HOP-62 NSCLC
# HOP-92 NSCLC = test system: HOP-92 NSCLC
# HS 578T breast = test system: HS 578T breast
# HT29 colon = test system: HT29 colon
# IGROV1 ovarian = test system: IGROV1 ovarian
# K-562 leukemia = test system: K-562 leukemia
# KM12 colon = test system: KM12 colon
# LOX IMVI melanoma = test system: LOX IMVI melanoma
# M14 melanoma = test system: M14 melanoma
# MALME-3M melanoma = test system: MALME-3M melanoma
# MCF7 breast = test system: MCF7 breast
# MDA-MB-231 breast = test system: MDA-MB-231 breast
# MDA-MB-435 = test system: MDA-MB-435
# MDA-N = test system: MDA-N
# MOLT-4 leukemia = test system: MOLT-4 leukemia
# NCI-H226 lung = test system: NCI-H226 lung
# NCI-H23 lung = test system: NCI-H23 lung
# NCI-H460 lung = test system: NCI-H460 lung
# NCI/ADR-RES ovarian = test system: NCI/ADR-RES ovarian
# OVCAR-3 ovarian = test system: OVCAR-3 ovarian
# OVCAR-4 ovarian = test system: OVCAR-4 ovarian
# OVCAR-5 ovarian = test system: OVCAR-5 ovarian
# OVCAR-8 ovarian = test system: OVCAR-8 ovarian
# PC-3 prostate = test system: PC-3 prostate
# RXF 393 renal = test system: RXF 393 renal
# SF-295 CNS = test system: SF-295 CNS
# SF-539 CNS = test system: SF-539 CNS
# SK-MEL-2 melanoma = test system: SK-MEL-2 melanoma
# SK-MEL-28 melanoma = test system: SK-MEL-28 melanoma
# SK-MEL-5 melanoma = test system: SK-MEL-5 melanoma
# SK-OV-3 ovarian = test system: SK-OV-3 ovarian
# SN12C renal = test system: SN12C renal
# SNB-19 CNS = test system: SNB-19 CNS
# SNB-75 CNS = test system: SNB-75 CNS
# SR leukemia = test system: SR leukemia
# SW-620 colon = test system: SW-620 colon
# TK-10 renal = test system: TK-10 renal
# U251 CNS = test system: U251 CNS
# UACC-257 melanoma = test system: UACC-257 melanoma
# UACC-62 melanoma = test system: UACC-62 melanoma
# UO-31 renal = test system: UO-31 renal
# DU-145 prostate = test system: DU-145 prostate
# NCI-H522 lung = test system: NCI-H522 lung
# RPMI-8226 leukemia = test system: RPMI-8226 leukemia
# SF-268 CNS = test system: SF-268 CNS
# T-47D breast = test system: T-47D breast
smiles,measurement,setting,value
NC(=S)N=Nc1c(O)[nH]c2c(Cl)cc(Cl)cc12,TGI,786-0 renal,92.9 µM
same,TGI,A498 renal,> 100 µM
same,TGI,A549 NSCLC,> 100 µM
same,TGI,ACHN renal,> 100 µM
same,TGI,BT-549 breast,50.4 µM
same,TGI,CAKI-1 renal,> 100 µM
same,TGI,CCRF-CEM leukemia,> 100 µM
same,TGI,COLO 205 colon,41.8 µM
same,TGI,EKVX NSCLC,> 100 µM
same,TGI,HCC-2998 colon,> 100 µM
same,TGI,HCT-116 colon,40.5 µM
same,TGI,HCT-15 colon,> 100 µM
same,TGI,HL-60(TB) leukemia,49.6 µM
same,TGI,HOP-62 NSCLC,49.4 µM
same,TGI,HOP-92 NSCLC,> 100 µM
same,TGI,HS 578T breast,72.5 µM
same,TGI,HT29 colon,42 µM
same,TGI,IGROV1 ovarian,> 100 µM
same,TGI,K-562 leukemia,> 100 µM
same,TGI,KM12 colon,42.2 µM
same,TGI,LOX IMVI melanoma,48 µM
same,TGI,M14 melanoma,32.3 µM
same,TGI,MALME-3M melanoma,35.2 µM
same,TGI,MCF7 breast,> 100 µM
same,TGI,MDA-MB-231 breast,50.2 µM
same,TGI,MDA-MB-435,34 µM
same,TGI,MDA-N,35.1 µM
same,TGI,MOLT-4 leukemia,67.8 µM
same,TGI,NCI-H226 lung,30.3 µM
same,TGI,NCI-H23 lung,> 100 µM
same,TGI,NCI-H460 lung,> 100 µM
same,TGI,NCI/ADR-RES ovarian,38.7 µM
same,TGI,OVCAR-3 ovarian,34.8 µM
same,TGI,OVCAR-4 ovarian,> 100 µM
same,TGI,OVCAR-5 ovarian,> 100 µM
same,TGI,OVCAR-8 ovarian,40.8 µM
same,TGI,PC-3 prostate,81.1 µM
same,TGI,RXF 393 renal,33.7 µM
same,TGI,SF-295 CNS,46.6 µM
same,TGI,SF-539 CNS,34.6 µM
same,TGI,SK-MEL-2 melanoma,34.8 µM
same,TGI,SK-MEL-28 melanoma,29.6 µM
same,TGI,SK-MEL-5 melanoma,28.2 µM
same,TGI,SK-OV-3 ovarian,> 100 µM
same,TGI,SN12C renal,52.8 µM
same,TGI,SNB-19 CNS,> 100 µM
same,TGI,SNB-75 CNS,42.4 µM
same,TGI,SR leukemia,70.4 µM
same,TGI,SW-620 colon,> 100 µM
same,TGI,TK-10 renal,> 100 µM
same,TGI,U251 CNS,40.9 µM
same,TGI,UACC-257 melanoma,86.2 µM
same,TGI,UACC-62 melanoma,34.1 µM
same,TGI,UO-31 renal,> 100 µM
O=C(O)C(O)(c1ccc(-c2ccccc2)cc1)c1ccc(-c2ccccc2)cc1,TGI,786-0 renal,80.4 µM
same,TGI,A498 renal,43.5 µM
same,TGI,A549 NSCLC,> 100 µM
same,TGI,ACHN renal,94.7 µM
same,TGI,BT-549 breast,42.7 µM
same,TGI,CAKI-1 renal,> 100 µM
same,TGI,DU-145 prostate,40.6 µM
same,TGI,EKVX NSCLC,70.9 µM
same,TGI,HCT-116 colon,62.2 µM
same,TGI,HCT-15 colon,41.5 µM
same,TGI,HL-60(TB) leukemia,49.7 µM
same,TGI,HOP-62 NSCLC,46.3 µM
same,TGI,HOP-92 NSCLC,41.4 µM
same,TGI,HT29 colon,> 100 µM
same,TGI,IGROV1 ovarian,57.3 µM
same,TGI,K-562 leukemia,> 100 µM
same,TGI,KM12 colon,40.9 µM
same,TGI,LOX IMVI melanoma,31.8 µM
same,TGI,M14 melanoma,> 100 µM
same,TGI,MALME-3M melanoma,60.4 µM
same,TGI,MDA-MB-231 breast,79.1 µM
same,TGI,MDA-MB-435,43.7 µM
same,TGI,MDA-N,34.5 µM
same,TGI,MOLT-4 leukemia,> 100 µM
same,TGI,NCI-H226 lung,62.6 µM
same,TGI,NCI-H23 lung,36.2 µM
same,TGI,NCI-H460 lung,45.9 µM
same,TGI,NCI-H522 lung,47.5 µM
same,TGI,NCI/ADR-RES ovarian,61.2 µM
same,TGI,OVCAR-3 ovarian,30.3 µM
same,TGI,OVCAR-4 ovarian,> 100 µM
same,TGI,OVCAR-5 ovarian,77.8 µM
same,TGI,OVCAR-8 ovarian,> 100 µM
same,TGI,PC-3 prostate,70 µM
same,TGI,RPMI-8226 leukemia,> 100 µM
same,TGI,RXF 393 renal,51.6 µM
same,TGI,SF-268 CNS,57.8 µM
same,TGI,SF-295 CNS,68.8 µM
same,TGI,SK-MEL-2 melanoma,30.6 µM
same,TGI,SK-MEL-28 melanoma,> 100 µM
same,TGI,SK-MEL-5 melanoma,37.4 µM
same,TGI,SN12C renal,60.7 µM
same,TGI,SNB-19 CNS,> 100 µM
same,TGI,SNB-75 CNS,48.2 µM
same,TGI,SR leukemia,> 100 µM
same,TGI,SW-620 colon,> 100 µM
same,TGI,T-47D breast,> 100 µM
same,TGI,TK-10 renal,> 100 µM
same,TGI,U251 CNS,32.7 µM
same,TGI,UACC-257 melanoma,> 100 µM
same,TGI,UACC-62 melanoma,36.7 µM
same,TGI,UO-31 renal,> 100 µM
Cc1ccc(S(=O)(=O)N2CCCSCCSCCCN(S(=O)(=O)c3ccc(C)cc3)CC2)cc1,TGI,786-0 renal,> 100 µM
same,TGI,A498 renal,> 100 µM
same,TGI,A549 NSCLC,> 100 µM
same,TGI,ACHN renal,> 100 µM
same,TGI,BT-549 breast,> 100 µM
same,TGI,COLO 205 colon,> 100 µM
same,TGI,DU-145 prostate,> 100 µM
same,TGI,EKVX NSCLC,> 100 µM
same,TGI,HCC-2998 colon,> 100 µM
same,TGI,HCT-116 colon,> 100 µM
same,TGI,HCT-15 colon,> 100 µM
same,TGI,HOP-62 NSCLC,> 100 µM
same,TGI,HS 578T breast,> 100 µM
same,TGI,HT29 colon,> 100 µM
same,TGI,IGROV1 ovarian,> 100 µM
same,TGI,KM12 colon,> 100 µM
same,TGI,M14 melanoma,> 100 µM
same,TGI,MCF7 breast,> 100 µM
same,TGI,MDA-MB-231 breast,> 100 µM
same,TGI,MDA-MB-435,> 100 µM
same,TGI,MDA-N,> 100 µM
same,TGI,MOLT-4 leukemia,> 100 µM
same,TGI,NCI-H226 lung,> 100 µM
same,TGI,NCI-H23 lung,> 100 µM
same,TGI,NCI-H460 lung,> 100 µM
same,TGI,NCI/ADR-RES ovarian,> 100 µM
same,TGI,OVCAR-3 ovarian,> 100 µM
same,TGI,OVCAR-4 ovarian,> 100 µM
same,TGI,OVCAR-5 ovarian,> 100 µM
same,TGI,OVCAR-8 ovarian,> 100 µM
same,TGI,RPMI-8226 leukemia,> 100 µM
same,TGI,RXF 393 renal,> 100 µM
same,TGI,SF-268 CNS,> 100 µM
same,TGI,SF-295 CNS,> 100 µM
same,TGI,SF-539 CNS,> 100 µM
same,TGI,SK-MEL-2 melanoma,> 100 µM
same,TGI,SK-MEL-28 melanoma,> 100 µM
same,TGI,SK-MEL-5 melanoma,> 100 µM
same,TGI,SK-OV-3 ovarian,> 100 µM
same,TGI,SN12C renal,> 100 µM
same,TGI,SNB-19 CNS,> 100 µM
same,TGI,SNB-75 CNS,> 100 µM
same,TGI,SW-620 colon,> 100 µM
same,TGI,T-47D breast,> 100 µM
same,TGI,TK-10 renal,> 100 µM
same,TGI,U251 CNS,> 100 µM
same,TGI,UACC-257 melanoma,> 100 µM
same,TGI,UACC-62 melanoma,> 100 µM
same,TGI,UO-31 renal,> 100 µM
O=C1CCCC/C1=C1/SC(=Nc2ccccc2)C(=Nc2ccccc2)N1c1ccccc1,TGI,A498 renal,> 100 µM
same,TGI,BT-549 breast,> 100 µM
same,TGI,CAKI-1 renal,> 100 µM
same,TGI,CCRF-CEM leukemia,> 100 µM
same,TGI,COLO 205 colon,> 100 µM
same,TGI,DU-145 prostate,> 100 µM
same,TGI,HCC-2998 colon,> 100 µM
same,TGI,HCT-116 colon,> 100 µM
same,TGI,HCT-15 colon,> 100 µM
same,TGI,HL-60(TB) leukemia,> 100 µM
same,TGI,HOP-62 NSCLC,> 100 µM
same,TGI,HOP-92 NSCLC,> 100 µM
same,TGI,HS 578T breast,> 100 µM
same,TGI,HT29 colon,> 100 µM
same,TGI,IGROV1 ovarian,> 100 µM
same,TGI,K-562 leukemia,> 100 µM
same,TGI,KM12 colon,> 100 µM
same,TGI,M14 melanoma,> 100 µM
same,TGI,MALME-3M melanoma,> 100 µM
same,TGI,MCF7 breast,> 100 µM
same,TGI,MDA-MB-231 breast,> 100 µM
same,TGI,MDA-N,> 100 µM
same,TGI,MOLT-4 leukemia,> 100 µM
same,TGI,NCI-H226 lung,> 100 µM
same,TGI,NCI-H23 lung,> 100 µM
same,TGI,NCI-H460 lung,> 100 µM
same,TGI,NCI-H522 lung,> 100 µM
same,TGI,NCI/ADR-RES ovarian,> 100 µM
same,TGI,OVCAR-3 ovarian,> 100 µM
same,TGI,OVCAR-5 ovarian,> 100 µM
same,TGI,OVCAR-8 ovarian,> 100 µM
same,TGI,RPMI-8226 leukemia,> 100 µM
same,TGI,RXF 393 renal,40 µM
same,TGI,SF-295 CNS,> 100 µM
same,TGI,SK-MEL-2 melanoma,> 100 µM
same,TGI,SK-MEL-28 melanoma,> 100 µM
same,TGI,SK-OV-3 ovarian,> 100 µM
same,TGI,SN12C renal,> 100 µM
same,TGI,SNB-19 CNS,> 100 µM
same,TGI,SNB-75 CNS,> 100 µM
same,TGI,SR leukemia,> 100 µM
same,TGI,T-47D breast,> 100 µM
same,TGI,U251 CNS,> 100 µM
same,TGI,UACC-62 melanoma,> 100 µM
same,TGI,UO-31 renal,> 100 µM

# — PubChem BioAssay (NCI)
